# Laboratory results taken from PMC6042199, “Inhibitory effects against α-glucosidase and α-amylase of the flavonoids-rich extract from Scutellaria baicalensis shoots and interpretation of structure–activity relationship of its eight flavonoids by a refined assign-score method” (Chemistry Central Journal, 2018).
# Key:
# [1] = tested on: yeast α-glucosidase from Saccharomyces cerevisiae; experiment: α-glucosidase inhibitory effect (pNPG, AUC of absorbance at 405 nm); assay type: biochemical; conditions: for Inhibitory effects α-glucosidase (acarbose equivalents): converted into acarbose equivalents; for IC50 α-Glucosidase: mean ± SD of three repeated tests, logarithmic regression
# Protocol: (§1) All solvents (analytical grade) were bought from Beijing Chemical Factory, and purified water was from a mili-Q system (Millipore, Billerica, MA).
# α-Glucosidase inhibitory effect was assayed as reported by Zhang et al.. […] Then, 30 μL pNPG solution (2 mM pNPG in 0.1 mM phosphate buffer) was added quickly to initiate the enzyme reaction. Absorbance was monitored at 405 nm every 15 min for 2 h using a microplate reader (Tecan infinite 200, Swiss).
# [2] = molecular target: T1, porcine pancreatic α-amylase (Sus scrofa, UniProt P00690); experiment: α-amylase inhibitory effect (starch, dinitrosalicylic acid, 540 nm); assay type: biochemical; conditions: for Contribution to the overall enzyme inhibitory effect of the extract, α-amylase: Contribution = [Ei/E0] × C × 100; for Inhibitory effects α-amylase (acarbose equivalents): converted into acarbose equivalents; for IC50: mean ± SD of three repeated tests, logarithmic regression
# T1 construct: purchased Sigma-Aldrich Co. (St. Louis, MO, USA)
# T1 sequence (P00690 16-511): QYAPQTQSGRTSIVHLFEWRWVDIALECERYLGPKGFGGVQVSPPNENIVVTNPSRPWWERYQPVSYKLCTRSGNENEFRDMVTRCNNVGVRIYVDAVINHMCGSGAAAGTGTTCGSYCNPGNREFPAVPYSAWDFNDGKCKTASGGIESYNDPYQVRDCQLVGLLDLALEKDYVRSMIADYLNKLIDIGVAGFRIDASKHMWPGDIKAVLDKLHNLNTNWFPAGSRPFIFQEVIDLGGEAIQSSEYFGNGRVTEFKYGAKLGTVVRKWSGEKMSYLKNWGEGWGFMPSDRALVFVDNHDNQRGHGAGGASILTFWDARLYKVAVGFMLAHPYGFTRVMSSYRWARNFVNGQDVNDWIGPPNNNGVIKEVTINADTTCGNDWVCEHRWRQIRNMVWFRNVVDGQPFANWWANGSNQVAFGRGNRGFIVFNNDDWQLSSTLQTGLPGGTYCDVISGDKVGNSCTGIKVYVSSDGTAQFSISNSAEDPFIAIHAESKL
# Protocol: as §1
# After incubation for 20 min at 37 °C, 300 μL starch solution (1%) in sodium phosphate buffer (0.02 M, pH 6.9 with 6 mM NaCl) was added, and the mixture was re-incubated for 20 min, followed by addition of 0.2 mL dinitrosalicylic acid. The new mixture was then boiled for 5 min and cooled to room temperature. Cooled mixture was diluted by adding 10 mL distilled water, and absorbance was measured at 540 nm using a UV–visible spectrophotometer (Shimadzu UV-1700, Japan). […] IC50 values were calculated by the logarithmic regression analysis.
# α-glucosidase enzyme = tested on: α-glucosidase enzyme; set-up: method as in doi:10.1007/978-3-642-73461-8_2; conditions: cited from earlier work
Compound,Inhibitory effects α-glucosidase (acarbose equivalents) [1],IC50 α-Glucosidase [1],"Contribution to the overall enzyme inhibitory effect of the extract, α-amylase [2]",Inhibitory effects α-amylase (acarbose equivalents) [2],IC50 [2],final inhibitory effect against α-glucosidase ([1]; at 2 mg/mL),inhibition at 2000 µg/mL ([2]; read-out: inhibition of α-amylase),"affinity exceeding that of the normal substrate, factor (α-glucosidase enzyme)"
"O=c1cc(-c2ccccc2)oc2cc(O)cc(O)c12 [Chrysin, chrysin]",2.36 ± 0.03 μg acarbose/μg,422.67 ± 9.37 µg/mL,6.91 ± 0.21%,1.51 ± 0.02 μg acarbose/μg,1770 µM,,,
"O=C(O)[C@H]1O[C@@H](Oc2cc(O)c3c(=O)cc(-c4ccccc4)oc3c2)[C@H](O)[C@@H](O)[C@@H]1O [Chrysin-7-O-G, chrysin-7-O-glucuronide]",1.63 ± 0.01 μg acarbose/μg,612.13 ± 15.34 µg/mL,2.63 ± 0.07%,0.69 ± 0.01 μg acarbose/μg,2280 µM,,,
"O=C(O)[C@H]1O[C@@H](Oc2cc(O)c3c(=O)cc(-c4ccc(O)cc4)oc3c2)[C@H](O)[C@@H](O)[C@@H]1O [Apigenin-7-O-G, apigenin-7-O-glucuronide]",1.83 ± 0.02 μg acarbose/μg,543.28 ± 11.41 µg/mL,2.74 ± 0.09%,1.04 ± 0.01 μg acarbose/μg,1470 µM,,,
"O=C(O)[C@H]1O[C@@H](Oc2cc3oc(-c4ccccc4)cc(=O)c3c(O)c2O)[C@H](O)[C@@H](O)[C@@H]1O [Baicalin, baicalin]",1.68 ± 0.02 μg acarbose/μg,591.58 ± 12.21 µg/mL,4.95 ± 0.13%,1.03 ± 0.01 μg acarbose/μg,1480 µM,,,
"C[C@H]1O[C@H](O[C@H]2[C@H](O)[C@@H](O)[C@@H](O[C@H]3[C@H](O)[C@@H](O)C(O)O[C@@H]3CO)O[C@@H]2CO)[C@H](O)[C@@H](O)[C@@H]1N[C@H]1C=C(CO)[C@@H](O)[C@H](O)[C@H]1O (stereo partly drawn) [Acarbose, acarbose, reference compound]",,996.02 ± 21.34 µg/mL,,,,68.66%,69.9%,10^4–10^5
"O=c1cc(-c2ccccc2)oc2cc(O)c(O)c(O)c12 [Baicalein, baicalein]",3.58 ± 0.07 μg acarbose/μg,277.94 ± 6.21 µg/mL,23.37 ± 0.98%,2.07 ± 0.02 μg acarbose/μg,1240 µM,,,
"O=C(O)[C@H]1O[C@@H](Oc2cc3oc(-c4ccc(O)cc4)cc(=O)c3c(O)c2O)[C@H](O)[C@@H](O)[C@@H]1O [Scutellarin, scutellarin]",3.18 ± 0.06 μg acarbose/μg,313.25 ± 7.28 µg/mL,14.80 ± 0.66%,1.84 ± 0.02 μg acarbose/μg,799 µM,,,
O=c1cc(-c2ccc(O)cc2)oc2cc(O)cc(O)c12 [Apigenin],4.31 ± 0.08 μg acarbose/μg,231.13 ± 5.35 µg/mL,,,,,,
